# From US20080125408A1, “PENEM PRODRUG” (Pfizer Inc, priority 2006, published 2008)
# Like-named read-outs stand apart in the source and are kept apart here.
# What was measured:
# [1] = Liver S9 stability and conversion efficiency to sulopenem; format: in vitro ADME, human; conditions: for half-life at 50 µM: human
# Description: Oral bioavailability can be predicted variously by factors including one or more of (1) GI tract stability, (2) Caco-2 permeability, (3) efficiency of conversion to sulopenem, and (4) high solubility. Accordingly, the sulopenem prodrugs of the invention were evaluated, as detailed below, for stability in human intestinal juice (HIJ), efficiency of conversion to sulopenem in human liver homogenate, whole blood conversion and solubility as measured in phosphate buffer pH 5.0. Liver S9 was prepared fresh from liver chunks stored at −70° C. for each analysis completed. Approximately 5 g of frozen liver tissue was homogenized to uniformity in 15 mL of ice cold 100 mM potassium phosphate (pH 7.4) buffer. The homogenate was then centrifuged at 9000 g for 20 minutes at 5° C. to isolate the S9 supernatant fraction. Each incubation was run at a 1:10 dilution of the S9 supernatant in 100 mM potassium phosphate (pH 7.4) buffer. Reactions (1 mL) were initiated by the addition of substrate (50 μM final) at 37° C. Stability and conversion efficiency were assessed in 1 mL incubations with heparinized whole blood at 37° C. For both S9 homogenates and whole blood incubations, aliquots (75 μL) were obtained at 0, 0.5, 1, 2, 3, 5, 10, and 20 minutes and quenched in 150 μL of 80/20 acetonitrile/100 mM ammonium acetate pH 4.5 containing an internal standard (ampicillin, 5 μg/mL). Samples were centrifuged at 3000 g for 10 minutes and the supernatants transferred to injection vials. First order degradation of the prodrug was monitored by LC/MS/MS as described below. Conversion to sulopenem was expressed as a percentage of the molar equivalent (50 μM) in a fortified sample. The results of the S9 and whole blood stability and conversion studies are shown in Table 2, where single values represent an average of two duplicate determinations.
# [2] = Human Intestinal Juice (HIJ) stability studies; format: in vitro ADME; conditions: pooled HIJ from 4 subjects, buffered pH 7.4, 37° C., substrate 1-300 μM
# Description: In the HIJ experiments, HIJ from 4 individual subjects (1 mL each) was pooled with 1 mL of 600 mM potassium phosphate buffer pH 7.4. Aliquots of 300 μL×6 of the buffered human intestinal juice were incubated at 37° C. following fortification of substrate at concentrations of 300, 100, 30, 10, 3, and 1 μM. Two prodrug compounds could be run at the same time. Samples of 35 μL were taken at 0, 0.5, 1, 2, 10, and 20 minutes and quenched with 70 μL of 80/20 acetonitrile/100 mM ammonium acetate pH 4.5 containing an internal standard (ampicillin, 5 μg/mL). Samples were centrifuged at 3000 g for 10 minutes and the supernatants transferred to injection vials. First order degradation of the prodrug was monitored by LC/MS/MS as described below. The percentage of prodrug remaining versus time at each concentration was fitted to a first order decay function to determine the substrate depletion rate constant or kdep. A linear-log plot of kdep versus concentration could be fitted with the following equation where: [formula] […] In Michaelis-Menton terms, intrinsic clearance CLint represents the ratio of Vmax/Km when [S] is well below the Km. Substrate units for these studies were reported in μM and intrinsic clearance (CIint) in mL/min.
# [3] = Equilibrium solubility in phosphate buffer pH 5
# [4] = Whole blood conversion efficiency to sulopenem; format: in vitro ADME; conditions: heparinized whole blood, 37° C.
# Description: Stability and conversion efficiency were assessed in 1 mL incubations with heparinized whole blood at 37° C. For both S9 homogenates and whole blood incubations, aliquots (75 μL) were obtained at 0, 0.5, 1, 2, 3, 5, 10, and 20 minutes and quenched in 150 μL of 80/20 acetonitrile/100 mM ammonium acetate pH 4.5 containing an internal standard (ampicillin, 5 μg/mL). Samples were centrifuged at 3000 g for 10 minutes and the supernatants transferred to injection vials. First order degradation of the prodrug was monitored by LC/MS/MS as described below. Conversion to sulopenem was expressed as a percentage of the molar equivalent (50 μM) in a fortified sample. The results of the S9 and whole blood stability and conversion studies are shown in Table 2, where single values represent an average of two duplicate determinations.
# Caco-2 cells = assay: Caco-2 permeability studies (A→B assay)
# [5] = humans, about 500 mg equivalent dose; cited from earlier work
# [6] = test system: Pseudomonas aeruginosa, Acinetobacter spp., Stenotrophomonas maltophilia, multi-resistant enterococci and methicillin-resistant staphylococci; assay: Antibacterial spectrum: pathogens against which there is no activity; format: cell-based
# [7] = test system: Staphylococcus saprophyticus; assay: MIC90 of sulopenem (in vitro activity); format: cell-based
# [8] = test system: Haemophilus influenzae β-lactamase−; assay: MIC90 of sulopenem (in vitro activity); format: cell-based
# [9] = test system: Streptococcus agalactiae (Group B); assay: MIC90 of sulopenem (in vitro activity); format: cell-based
# Description: (§1) The in vitro activity of sulopenem (B9) (the parent acid) based on minimum inhibitory concentration (MIC) was evaluated against pathogens involved in […] community and hospital infections, as summarized in Table 1.
# Klebsiella oxytoca = assay: MIC90 of sulopenem (in vitro activity); format: cell-based
# Description: as §1
# Prevotella spp = assay: MIC90 of sulopenem (in vitro activity); format: cell-based
# Description: as §1
# Salmonella/Shigella = assay: MIC90 of sulopenem (in vitro activity); format: cell-based
# Description: as §1
# Klebsiella pneumoniae = assay: MIC90 of sulopenem (in vitro activity); format: cell-based
# Description: as §1
# Listeria monocytogenes = assay: MIC90 of sulopenem (in vitro activity); format: cell-based
# Description: as §1
# [10] = test system: Staphylococcus aureus oxacillin-S; assay: MIC90 of sulopenem (in vitro activity); format: cell-based
# Description: as §1
# Enterobacter aerogenes = assay: MIC90 of sulopenem (in vitro activity); format: cell-based; conditions: Klebsiella aerogenes
# Enterobacter cloacae = assay: MIC90 of sulopenem (in vitro activity); format: cell-based
# [11] = test system: Moraxella catarrhalis β-lactamase+; assay: MIC90 of sulopenem (in vitro activity); format: cell-based
# [12] = test system: Viridans Streptococcus group; assay: MIC90 of sulopenem (in vitro activity); format: cell-based
# [13] = test system: Streptococcus pneumonia penicillin-intermediate; assay: MIC90 of sulopenem (in vitro activity); format: cell-based; conditions: Streptococcus pneumoniae
# [14] = test system: Haemophilus influenzae β-lactamase+; assay: MIC90 of sulopenem (in vitro activity); format: cell-based
# [15] = test system: Streptococcus pyogenes (Group A); assay: MIC90 of sulopenem (in vitro activity); format: cell-based
# [16] = test system: Klebsiella pneumoniae ESBL+; assay: MIC90 of sulopenem (in vitro activity); format: cell-based
# [17] = test system: Streptococcus pneumoniae penicillin-susceptible; assay: MIC90 of sulopenem (in vitro activity); format: cell-based
# [18] = test system: Streptococcus pneumoniae levofloxacin-resistant; assay: MIC90 of sulopenem (in vitro activity); format: cell-based
# Citrobacter diversus = assay: MIC90 of sulopenem (in vitro activity); format: cell-based; conditions: Citrobacter koseri
# [19] = test system: Moraxella catarrhalis β-lactamase−; assay: MIC90 of sulopenem (in vitro activity); format: cell-based
# [20] = test system: Streptococcus bovis (Group D); assay: MIC90 of sulopenem (in vitro activity); format: cell-based; conditions: Streptococcus equinus
# Bacteroides fragilis = assay: MIC90 of sulopenem (in vitro activity); format: cell-based
# Clostridium perfringens = assay: microbe, parasite or virus in culture; format: cell-based
# Neisseria meningitides = assay: MIC90 of sulopenem (in vitro activity); format: cell-based
# Alloiococcus otitidis = assay: MIC90 of sulopenem (in vitro activity); format: cell-based; conditions: Alloiococcus otitis
# [21] = test system: Streptococcus pneumoniae penicillin-resistant; assay: MIC90 of sulopenem (in vitro activity); format: cell-based
# Citrobacter freundii = assay: MIC90 of sulopenem (in vitro activity); format: cell-based
# Escherichia coli = assay: MIC90 of sulopenem (in vitro activity); format: cell-based
# Legionella pneumophila = assay: microbe, parasite or virus in culture; format: cell-based
# [22] = test system: Corynebacterium spp (not C. jeikeium); assay: MIC90 of sulopenem (in vitro activity); format: cell-based
# [23] = in vivo; cited from earlier work
# Proteus mirabilis = assay: MIC90 of sulopenem (in vitro activity); format: cell-based
# Morganella morganii = assay: MIC90 of sulopenem (in vitro activity); format: cell-based
# [24] = prodrug degradation, liver S9 1:10, 50 μM, pH 7.4, 37° C.
# [25] = human, pooled human intestinal juice (HIJ)
# [26] = phosphate buffer, pH 5, aqueous buffer, thermodynamic from solid
smiles,measurement,setting,value
"CCc1oc(=O)oc1COC(=O)C1=C(S[C@H]2CC[S@@+]([O-])C2)S[C@@H]2[C@@H]([C@@H](C)O)C(=O)N12 [Compound 1, (5-ethyl-2-oxo-1,3-dioxol-4-yl)methyl (5R,6S)-6-[(1R)-1-hydroxyethyl]-7-oxo-3-[[(1R,3S)-tetrahydro-1-oxido-3-thienyl]thio]-4-thia-1-azabicyclo[3.2.0]hept-2-ene-2-carboxylate]",half-life at 50 µM,[1]; [24],3.11 min
same,Km,[2]; [25],120 µM
same,HIJ CLint,[2],0.14 mL/min
same,solubility,[3]; [26],1200 µg/mL
"CCCc1oc(=O)oc1COC(=O)C1=C(S[C@H]2CC[S@@+]([O-])C2)S[C@@H]2[C@@H]([C@@H](C)O)C(=O)N12 [Compound 2, (5-propyl-2-oxo-1,3-dioxol-4-yl)methyl (5R,6S)-6-[(1R)-1-hydroxyethyl]-7-oxo-3-[[(1R,3S)-tetrahydro-1-oxido-3-thienyl]thio]-4-thia-1-azabicyclo[3.2.0]hept-2-ene-2-carboxylate]",half-life at 50 µM,[1]; [24],3.62 min
same,Km,[2]; [25],22 µM
same,HIJ CLint,[2],0.16 mL/min
same,solubility,[3]; [26],507 µg/mL
"CCCCc1oc(=O)oc1COC(=O)C1=C(S[C@H]2CC[S@@+]([O-])C2)S[C@@H]2[C@@H]([C@@H](C)O)C(=O)N12 [Compound 3, (5-(3-methylpropyl)-2-oxo-1,3-dioxol-4-yl)methyl (5R,6S)-6-[(1R)-1-hydroxyethyl]-7-oxo-3-[[(1R,3S)-tetrahydro-1-oxido-3-thienyl]thio]-4-thia-1-azabicyclo[3.2.0]hept-2-ene-2-carboxylate]",Whole Blood Conv,[4],84%
same,Caco-2 Permeability,"Caco-2 cells; Papp A→B, 100 μM prodrug, apical pH 6.5 / basolateral pH 7.4",5.02 ×10⁻⁶ cm/s
same,increase in Caco-2 permeability compared to C1,Caco-2 cells; relative to comparative compound C1,~10 fold
same,S9 Conv,"[1]; conversion to sulopenem, % of molar equivalent (50 μM), liver S9 1:10, pH 7.4, 37° C.",67%
same,S9 Half-life,[1]; [24],6.09 min
same,HIJ CLint,[2],0.16 mL/min
same,Km,[2],41 µM
same,solubility,"[3]; equilibrium, 25 mM phosphate buffer (pH 5), ambient temperature, up to 48 hours",809 µg/mL
"Cc1oc(=O)oc1COC(=O)C1=C(S[C@H]2CC[S@@+]([O-])C2)S[C@@H]2[C@@H]([C@@H](C)O)C(=O)N12 [Compound C1, (5-Methyl-2-oxo-1,3-dioxol-4-yl)methyl (5R,6S)-6-[(1R)-1-hydroxyethyl]-7-oxo-3-[[(1R,3S)-tetrahydro-1-oxido-3-thienyl]thio]-4-thia-1-azabicyclo[3.2.0]hept-2-ene-2-carboxylate]",half-life at 50 µM,[1]; [24],2.1 min
same,Km,[2]; [25],172 µM
same,HIJ CLint,[2],0.13 mL/min
same,solubility,[3]; [26],453 µg/mL
CC(O)C1C(=O)N2C(C(=O)OCOC(=O)C(C)(C)C)=C(SC3CC[S+]([O-])C3)SC12 (centres unmarked) [POM ester],oral bioavailability,[5],less than optimal oral bioavailability
"C[C@@H](O)[C@H]1C(=O)N2C(C(=O)O)=C(S[C@H]3CC[S@@+]([O-])C3)S[C@H]12 [Sulopenem, (5R,6S)-6-[(1R)-1-hydroxyethyl]-7-oxo-3-[(1R,3S)-tetrahydro-1-oxido-3-thienylthio]-4-thia-1-azabicyclo[3.2.0]hept-2-ene-2-carboxylic acid]",antibacterial activity,[6],not active
same,MIC90,[7],0.5 µg/mL
same,MIC90,[8],0.25 µg/mL
same,MIC90,[9],0.125 µg/mL
same,MIC90,Klebsiella oxytoca,0.125 µg/mL
same,MIC90,Prevotella spp,0.125 µg/mL
same,MIC90,Salmonella/Shigella,0.125 µg/mL
same,MIC90,Klebsiella pneumoniae,0.125 µg/mL
same,MIC90,Listeria monocytogenes,0.125 µg/mL
same,MIC90,[10],0.125 µg/mL
same,MIC90,Enterobacter aerogenes,0.5 µg/mL
same,MIC90,Enterobacter cloacae,1 µg/mL
same,MIC90,[11],0.125 µg/mL
same,MIC90,[12],0.25 µg/mL
same,MIC90,[13],0.25 µg/mL
same,MIC90,[14],0.5 µg/mL
same,MIC90,[15],0.03 µg/mL
same,MIC90,[16],0.25 µg/mL
same,MIC90,[17],0.03 µg/mL
same,MIC90,[18],0.5 µg/mL
same,MIC90,Citrobacter diversus,0.06 µg/mL
same,MIC90,[19],0.03 µg/mL
same,MIC90,[20],0.06 µg/mL
same,MIC90,Bacteroides fragilis,0.5 µg/mL
same,MIC90,Clostridium perfringens,0.06 µg/mL
same,MIC90,Neisseria meningitides,0.06 µg/mL
same,MIC90,Alloiococcus otitidis,1 µg/mL
same,MIC90,[21],1 µg/mL
same,MIC90,Citrobacter freundii,0.25 µg/mL
same,MIC90,Escherichia coli,0.06 µg/mL
same,MIC90,Legionella pneumophila,0.06 µg/mL
same,MIC90,[22],2 µg/mL
same,oral bioavailability,[23],not appreciably orally bioavailable
same,MIC90,Proteus mirabilis,0.5 µg/mL
same,MIC90,Morganella morganii,2 µg/mL
